Measurements from paper PMC7179128, “Characterizations and Assays of α-Glucosidase Inhibition Activity on Gallic Acid Cocrystals: Can the Cocrystals be Defined as a New Chemical Entity During Binding with the α-Glucosidase?” (Molecules, 2020).

Columns and labels:
[1] = Powder dissolution test in 0.1 mol∙L^−1 HCl; format: physicochemical; conditions: after 25 min, 37 ± 0.5 °C
Description: Co., Ltd., Shanghai, China) at 25 °C in five different solutions (pH 1, 2, 4, 8 and water, respectively) using the shake-flask method. Excess sample was added in the solvent and the suspension was shaken for 72 h in an air bath. The suspension was filtered through a 0.45 μm Millipore filter. Then, the GA concentration was determined using HPLC (Agilent 1200, Santa Clara, CA, USA). […] Approximately 50 mg of the sample (here single GA and cocrystals equivalent to 50 mg of GA) were placed in 900 mL dissolution media. Four milliliters of the suspensions were taken at appropriate intervals and immediately replaced by 4 mL of fresh dissolution media. All samples were filtered through a 0.45 μm Millipore filter. The concentration of GA in all samples were determined by HPLC. All tests were repeated thrice. Bioavailability in vivo was assayed using SD rats. […] The intragastric suspensions were prepared by suspending GA or the cocrystal (equivalent to same amount of GA) in 5% sodium carboxymethyl cellulose. Thereafter, the intragastric suspensions were orally administered to the rats at a single dose of 50 mg∙kg^-1. An approximately 500 μL blood sample was obtained from the eye canthus and collected into 1.5 mL heparinized plastic centrifuge tubes at the set time point after intragastric administration. […] The pharmacokinetic parameters were calculated using DAS 2.0 software.

[2] = Oral bioavailability / pharmacokinetics in SD rats; format: in vivo; conditions: rat, single dose 50 mg∙kg^−1 (GA equivalent), n = 6, GA in plasma
Description: Co., Ltd., Shanghai, China) at 25 °C in five different solutions (pH 1, 2, 4, 8 and water, respectively) using the shake-flask method. Excess sample was added in the solvent and the suspension was shaken for 72 h in an air bath. The suspension was filtered through a 0.45 μm Millipore filter. Then, the GA concentration was determined using HPLC (Agilent 1200, Santa Clara, CA, USA). […] Approximately 50 mg of the sample (here single GA and cocrystals equivalent to 50 mg of GA) were placed in 900 mL dissolution media. Four milliliters of the suspensions were taken at appropriate intervals and immediately replaced by 4 mL of fresh dissolution media. All samples were filtered through a 0.45 μm Millipore filter. The concentration of GA in all samples were determined by HPLC. All tests were repeated thrice. Bioavailability in vivo was assayed using SD rats. […] The intragastric suspensions were prepared by suspending GA or the cocrystal (equivalent to same amount of GA) in 5% sodium carboxymethyl cellulose. Thereafter, the intragastric suspensions were orally administered to the rats at a single dose of 50 mg∙kg^-1. An approximately 500 μL blood sample was obtained from the eye canthus and collected into 1.5 mL heparinized plastic centrifuge tubes at the set time point after intragastric administration. GA was extracted from plasma by protein precipitation. One hundred microliters of plasma was mixed with internal standard solution (20 μL) in the centrifuge tube; then, the solution of acetonitrile formic acid (2%, v/v) was added to precipitate the protein. […] Then, the supernatant was taken for determining the concentration of GA by the LC-MS/MS (MS:3200 QTRAP, AB SCIEX, MA, USA, LC: Agilent1200, Santa Clara, CA, USA) method. The blood concentration-time curve was drawn by taking blood sampling time as the horizontal coordinate and GA concentration as the vertical coordinate. The pharmacokinetic parameters were calculated using DAS 2.0 software.

[3] = target: α-glucosidase (Saccharomyces cerevisiae, UniProt P53341); test: α-glucosidase inhibitory activity in vitro (pNPG substrate, absorbance at 405 nm); format: biochemical; conditions: in vitro inhibition rate, Figure 4
α-glucosidase, sequence (P53341 whole entry): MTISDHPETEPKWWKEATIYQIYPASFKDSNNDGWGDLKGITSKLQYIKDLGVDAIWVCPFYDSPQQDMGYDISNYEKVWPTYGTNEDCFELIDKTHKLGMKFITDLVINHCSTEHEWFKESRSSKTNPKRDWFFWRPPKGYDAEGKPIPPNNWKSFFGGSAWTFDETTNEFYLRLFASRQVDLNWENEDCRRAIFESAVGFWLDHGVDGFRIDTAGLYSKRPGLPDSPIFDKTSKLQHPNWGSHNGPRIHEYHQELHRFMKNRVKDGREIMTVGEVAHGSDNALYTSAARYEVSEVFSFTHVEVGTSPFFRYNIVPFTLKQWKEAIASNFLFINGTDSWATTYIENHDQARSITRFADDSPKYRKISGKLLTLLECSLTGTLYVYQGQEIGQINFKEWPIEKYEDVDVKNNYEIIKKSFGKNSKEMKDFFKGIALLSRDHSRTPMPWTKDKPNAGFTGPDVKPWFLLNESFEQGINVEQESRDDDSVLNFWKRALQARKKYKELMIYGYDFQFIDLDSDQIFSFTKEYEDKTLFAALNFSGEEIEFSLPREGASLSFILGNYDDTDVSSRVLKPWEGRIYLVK
Description: Briefly, accurately weighed α-glucosidase was dissolved in 0.1 mol∙L^−1 potassium phosphate buffer (pH 6.8) to produce 50 μL of enzyme solution with a concentration of 1.0 U∙mL^−1. Fifty microliters of enzyme solution and 50 μL of test sample were mixed in a well of a microtiter plate to incubate for 10 min at 37 °C. Three millimoles of pNPG in the same buffer was used as a substrate solution. After pre-incubation at 37 °C for 10 min, 50 μL of pNPG solution was added into above enzyme solution. The enzymatic reaction was allowed to proceed at 37 °C for 10 min, following the measurement of 4-nitrophenol absorbance at 405 nm on a microplate spectrophotometer. The solution without α-glucosidase was used as a blank. The solution without the test sample was used as a test. The solution without the test sample and α-glucosidase was used as a control.
IC50 values were obtained as the mean of three independent experiments, which were constructed by testing a series of concentrations (i.e., three curves were obtained, each in triplicate).

**Q.** For `O=C(O)c1cc(O)c(O)c(O)c1` [GA, gallic acid], which cumulative dissolution [1] is on record?
**A.** The cumulative dissolution was 80%.

**Q.** What about the AUC(0-inf) [2] of the same compound?
**A.** The AUC(0-inf) was 4200 ± 1200 ng·h/mL.

**Q.** And the AUC(0-t) [2]?
**A.** The AUC(0-t) was 4100 ± 1200 ng·h/mL.

**Q.** What about the Cmax [2] of the same compound?
**A.** Its Cmax is 1500 ± 500 ng/mL.

**Q.** Which “α-glucosidase inhibitory activity (in words)” value [3] does the source give for `O=C1CCC(=O)N1` [succinimide] here?
**A.** Its value is “no inhibitory activity”.
